According to article PMC6979384, “Characterization of the plant homeodomain (PHD) reader family for their histone tail interactions” (Epigenetics & Chromatin, 2020):
One block for each substance: values may come before it. Where no end group is shown, it is not given here.

What was measured:
[1] = test system: 123 annotated human PHD-containing domains; assay: PHD finger domain microarray probed with biotinylated peptides (all domains); assay type: binding; conditions: GST-PHD readers in duplicate on nitrocellulose slides, biotinylated peptide pre-labeled with streptavidin-Cy3
Text: To define the histone binding preferences of the PHD finger proteome, we expressed and purified 123 annotated human PHD-containing domains as GST-tagged recombinant fusions from E. coli. The recombinant proteins consisted of either PHD fingers in isolation, or as tandem domains if a given PHD finger was located adjacent to another reader domain (e.g., one or more PHD fingers, Tudor, chromo and/or bromodomains) (Additional file 1: Table S1). These GST fusions were printed in duplicate on nitrocellulose-coated microarray slides and probed with biotinylated peptides that represented the N-termini of H3, H4, H2A or H2B (Fig. 1a and Additional file 2: Figure S1). As the majority of PHD readers thus far characterized are H3K4me0/3 readers, we included additional peptides (H3K4 as either mono-, di-, or trimethylated) to further determine any H3K4 methyl preference (Additional file 2: Figure S2 and Fig. 1b). As a control, we also probed these microarrays with an α-Tubulin peptide (a.a. 30–50) that would not be predicted to interact with PHD fingers (Additional file 2: Figure S1). […] We also cannot exclude the possibility that some PHD fingers might not be functionally active on the microarrays (perhaps due to misfolding or the lack of an important adjacent region).
The protein domain microarray was designed to include 123 GST-tagged PHD-domain containing recombinant proteins. Protein domain microarray development and probing was as previously. Briefly, recombinant proteins were synthesized and cloned into pGEX-4T-1 vector by Biomatik Corporation. These GST-PHD readers were subsequently expressed, purified, and spotted in duplicate onto nitrocellulose-coated glass slides (Oncyte Avid slides, Grace Bio-Labs) using a pin arrayer (Aushon 2470, Aushon). For probing, microarray slides were blocked with 3% milk, 3% bovine serum albumin, 0.1% Tween 20 in PBS. Biotinylated peptides were pre-labeled with streptavidin-Cy3 fluorophore (GE Healthcare) and incubated with the blocked array slides. Slides were then washed with PBST and allowed to air dry. Fluorescent interactions were visualized using a GenePix 4200A Microarray Scanner (Molecular Devices).

AIRE (PP) = assay: Histone peptide microarray; assay type: binding, human; conditions: AIRE (PP), GST-tagged; arrays performed twice, n of 4
Outline: (§1)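 Binding of recombinant GST-fused PHD readers (0.5 μM) is detected on an array of 293 histone peptides, modified singly or in combination. An optimized array protocol is followed, and each intensity is the average of quadruplicate measurements with standard deviation.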

KDM5B (1) = assay: Histone peptide microarray; assay type: binding, human; conditions: KDM5B (1), GST-tagged; arrays performed twice, n of 4
Outline: as §1

DIDO1 = assay: Histone peptide microarray; assay type: binding, human; conditions: DIDO1, GST-tagged; arrays performed twice, n of 4
Outline: as §1

PHF23 = assay: Histone peptide microarray; assay type: binding, human; conditions: PHF23, GST-tagged; arrays performed twice, n of 4
Outline: as §1

KDM4C (TTP) = assay: Histone peptide microarray; assay type: binding, human; conditions: KDM4C (TTP), GST-tagged; arrays performed twice, n of 4
Outline: as §1

PHF13 = assay: Histone peptide microarray; assay type: binding, human; conditions: PHF13, GST-tagged; arrays performed twice, n of 4
Outline: as §1

PHRF1 (RP) = assay: Histone peptide microarray; assay type: binding, human; conditions: PHRF1 (RP), GST-tagged; arrays performed twice, n of 4
Outline: as §1

KDM5B (3) = assay: Histone peptide microarray; assay type: binding, human; conditions: KDM5B (3), GST-tagged; arrays performed twice, n of 4
Outline: as §1

TRIM66 (PB) = assay: Histone peptide microarray; assay type: binding, human; conditions: TRIM66 (PB), GST-tagged; arrays performed twice, n of 4
Outline: as §1

TAF3 = assay: Histone peptide microarray; assay type: binding, human; conditions: TAF3, GST-tagged; arrays performed twice, n of 4
Outline: as §1

BAZ2B = assay: Histone peptide microarray; assay type: binding, human; conditions: BAZ2B, GST-tagged; arrays performed twice, n of 4
Outline: as §1

MORC3 (CW) = assay: Histone peptide microarray; assay type: binding, human; conditions: MORC3 (CW), GST-tagged; arrays performed twice, n of 4
Outline: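 Purified PHD finger domains fused to GST are screened against 293 synthetic histone peptides bearing one or several post-translational modifications. The protein is used at 0.5 μM, and the signal from four replicate arrays is averaged, with standard deviation given.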

CHD5 (PCC) = assay: Histone peptide microarray; assay type: binding, human; conditions: CHD5 (PCC), GST-tagged; arrays performed twice, n of 4
Outline: as §1

CHD5 (PPCC) = assay: Histone peptide microarray; assay type: binding, human; conditions: CHD5 (PPCC), GST-tagged; arrays performed twice, n of 4
Outline: as §1

CHD4 (PPCC) = assay: Histone peptide microarray; assay type: binding, human; conditions: CHD4 (PPCC), GST-tagged; arrays performed twice, n of 4
Outline: as §1

PHF21A = assay: Histone peptide microarray; assay type: binding, human; conditions: PHF21A, GST-tagged; arrays performed twice, n of 4
Outline: as §1

MLL5 = assay: Histone peptide microarray; assay type: binding, human; conditions: MLL5, GST-tagged; arrays performed twice, n of 4
Outline: as §1

DPF2 (PPC2W2) = assay: Histone peptide microarray; assay type: binding, human; conditions: DPF2 (PPC2W2), GST-tagged; arrays performed twice, n of 4
Outline: as §1

ING4 = assay: Histone peptide microarray; assay type: binding, human; conditions: ING4, GST-tagged; arrays performed twice, n of 4
Outline: as §1

PHF2 = assay: Histone peptide microarray; assay type: binding, human; conditions: PHF2, GST-tagged; arrays performed twice, n of 4
Outline: as §1

KDM5A (1) = assay: Histone peptide microarray; assay type: binding, human; conditions: KDM5A (1), GST-tagged; arrays performed twice, n of 4
Outline: as §1

ING1 = assay: Histone peptide microarray; assay type: binding, human; conditions: ING1, GST-tagged; arrays performed twice, n of 4
Outline: as §1

KDM5A (3) = assay: Histone peptide microarray; assay type: binding, human; conditions: KDM5A (3), GST-tagged; arrays performed twice, n of 4
Outline: as §1

PHF8 = assay: Histone peptide microarray; assay type: binding, human; conditions: PHF8, GST-tagged; arrays performed twice, n of 4
Outline: as §1

ING5 = assay: Histone peptide microarray; assay type: binding, human; conditions: ING5, GST-tagged; arrays performed twice, n of 4
Outline: as §1

ING3 = assay: Histone peptide microarray; assay type: binding, human; conditions: ING3, GST-tagged; arrays performed twice, n of 4
Outline: as §1

RAG2 = assay: Histone peptide microarray; assay type: binding, human; conditions: RAG2, GST-tagged; arrays performed twice, n of 4
Outline: as §1

ING2 = assay: Histone peptide microarray; assay type: binding, human; conditions: ING2, GST-tagged; arrays performed twice, n of 4
Outline: as §1

SP140L = assay: Histone peptide microarray; assay type: binding, human; conditions: SP140L, GST-tagged; arrays performed twice, n of 4
Outline: as §1

BPTF (PB) = assay: Histone peptide microarray; assay type: binding, human; conditions: BPTF (PB), GST-tagged; arrays performed twice, n of 4
Outline: as §1

KDM7A = assay: Histone peptide microarray; assay type: binding, human; conditions: KDM7A, GST-tagged; arrays performed twice, n of 4
Outline: as §1

Substance: Ac-H2A (1-17): histone peptide (Ac-SGRGKQGGKARAKAKTR; UniProt P0C0S8 2-18, looked up, fragment)
- binding on domain microarray [1]: No detectable binding observed

Substance: H2B: biotinylated N-terminal H2B peptide (Figure S1: H2B (1-24)) [Peptide H2B]
- binding on domain microarray [1]: little to no positive interactions

Substance: α-Tubulin (30-50): α-Tubulin peptide (a.a. 30–50), control (IQPDGQMPSDKTIGGGDDSFN; also: biotin (end not given here))
- binding on domain microarray [1]: No detectable binding observed
- binding on domain microarray ([1]; listed as tubulin): little to no positive interactions

Results, then the substance that gave them:

- binding on domain microarray [1]: No detectable binding observed
Substance: Ac-H4 (1-16): histone peptide (SGRGKGGKGLGKGGAK; N-terminal acetylation; UniProt P62805 2-17, looked up, fragment)

- binding on domain microarray [1]: little to no positive interactions
Substance: H4: biotinylated N-terminal H4 peptide (Figure S1: Ac-H4 (1-16)) (SGRGKGGKGLGKGGAK; biotin, N-terminal acetyl; UniProt P62805 2-17, looked up, fragment) [Peptide H4]

- Array Heatmap value (peptide array binding signal) (AIRE (PP)): 0.3997
- Array Heatmap value (peptide array binding signal) (KDM5B (1)): 0.6488
- Array Heatmap value (peptide array binding signal) (DIDO1): 0.7478
- Array Heatmap value (peptide array binding signal) (PHF23): 0.5279
- Array Heatmap value (peptide array binding signal) (KDM4C (TTP)): 0.4677
- Array Heatmap value (peptide array binding signal) (PHF13): 0.6119
- Array Heatmap value (peptide array binding signal) (PHRF1 (RP)): 0.4883
- Array Heatmap value (peptide array binding signal) (KDM5B (3)): 0.4322
- Array Heatmap value (peptide array binding signal) (TRIM66 (PB)): 0.6061
- Array Heatmap value (peptide array binding signal) (TAF3): 0.2522
- Array Heatmap value (peptide array binding signal) (BAZ2B): 0.4426
- Array Heatmap value (peptide array binding signal) (MORC3 (CW)): 0.3567
- Array Heatmap value (peptide array binding signal) (CHD5 (PCC)): 0.7878
- Array Heatmap value (peptide array binding signal) (CHD5 (PPCC)): 0.538
- Array Heatmap value (peptide array binding signal) (CHD4 (PPCC)): 0.5842
- Array Heatmap value (peptide array binding signal) (PHF21A): 0.4264
- Array Heatmap value (peptide array binding signal) (MLL5): 0.5446
- Array Heatmap value (peptide array binding signal) (DPF2 (PPC2W2)): 0.6957
- Array Heatmap value (peptide array binding signal) (ING4): 0.4476
- Array Heatmap value (peptide array binding signal) (PHF2): 0.5897
- Array Heatmap value (peptide array binding signal) (KDM5A (1)): 0.4279
- Array Heatmap value (peptide array binding signal) (ING1): 0.569
- Array Heatmap value (peptide array binding signal) (KDM5A (3)): 0.493
- Array Heatmap value (peptide array binding signal) (PHF8): 0.3567
- Array Heatmap value (peptide array binding signal) (ING5): 0.3459
- Array Heatmap value (peptide array binding signal) (ING3): 0.5082
- Array Heatmap value (peptide array binding signal) (RAG2): 0.2496
- Array Heatmap value (peptide array binding signal) (ING2): 0.5931
- Array Heatmap value (peptide array binding signal) (SP140L): 0.3664
- Array Heatmap value (peptide array binding signal) (BPTF (PB)): 0.3544
- Array Heatmap value (peptide array binding signal) (KDM7A): 0.3296
Substance: Myc-Tag: 1-10 (ILKKATAYIL; Myc epitope tag; UniProt P01106 410-419, looked up, fragment)
